From publication PMC11490992 (Microbial Cell Factories, 2024)
Converted amounts (≈) assume the structure as drawn.

Molecular target: α-glucosidase
Assay: in vitro α-glucosidase inhibition assay, triplicate, serial dilutions
Type: biochemical

SMILES: CC(C)=CCc1ccc2c(CC#N)c[nH]c2c1 [compound 2, 3-cyanomethyl-6-prenylindole]
- IC50 (μg/mL)^a: 86.21 µg/mL (≈ 384 µM)
